Assay results reported in ChEMBL document CHEMBL3132797, “Synthesis and biological evaluation of substituted N-alkylphenyl-3,5-dinitrobenzamide analogs as anti-TB agents” (Medchemcomm, 2014).
In brackets after ≈: the same amount, converted by molar mass.

Experiments:
[1] = system: J774; experiment: Cytotoxicity against mouse J774 cells at 20 ug/ml after 24 hrs by MTT assay; format: cell-based; conditions: j774, 24 h
[2] = system: J774; experiment: Cytotoxicity against mouse J774 cells after 24 hrs by MTT assay; format: cell-based; conditions: J774, 24 h
[3] = Selectivity index, ratio of IC50 for mouse J774 cells to MIC for Mycobacterium tuberculosis H37Rv ATCC 27294; format: toxicity, cell-based; conditions: read-out: Selectivity Index
[4] = system: Mycobacterium tuberculosis; experiment: Antimycobacterial activity against Mycobacterium tuberculosis H37Rv ATCC 27294 infected in mouse J774 cells assessed as intracellular killing after 48 hrs by colony formation assay; format: functional; conditions: H37Rv ATCC 27294, 48 h
[5] = system: Mycobacterium tuberculosis; experiment: Bactericidal activity against Mycobacterium tuberculosis H37Rv ATCC 27294 by broth dilution method; format: functional
[6] = system: Mycobacterium tuberculosis; experiment: Antimycobacterial activity against Mycobacterium tuberculosis H37Rv ATCC 27294 by broth dilution method; format: functional
[7] = AUC (0 to t) in Balb mouse at 1 mg/kg, iv; format: ADME, organism-based; parameters: dose 1 mg/kg, route intravenous; conditions: plasma
[8] = Clearance in Balb mouse at 1 mg/kg, iv; format: ADME, organism-based; parameters: dose 1 mg/kg, route intravenous; conditions: in vivo
[9] = Elimination half life in Balb mouse at 1 mg/kg, iv; format: ADME, organism-based; parameters: dose 1 mg/kg, route intravenous; conditions: in vivo, read-out: beta t1/2 (converted)
[10] = Bioavailability in Balb mouse at 2.5 mg/kg, ip; format: ADME, organism-based; conditions: in vivo
[11] = Cmax in Balb mouse at 1 mg/kg, iv; format: ADME, organism-based; parameters: dose 1 mg/kg, route intravenous; conditions: in vivo
[12] = AUC (0 to t) in Balb mouse at 2.5 mg/kg, ip; format: ADME, organism-based; parameters: dose 2.5 mg/kg, route intraperitoneal; conditions: plasma
[13] = Elimination half life in Balb mouse at 2.5 mg/kg, ip; format: ADME, organism-based; parameters: dose 2.5 mg/kg, route intraperitoneal; conditions: in vivo, read-out: beta t1/2 (converted)
[14] = Tmax in Balb mouse at 2.5 mg/kg, ip; format: ADME, organism-based; parameters: dose 2.5 mg/kg, route intraperitoneal; conditions: in vivo
[15] = Cmax in Balb mouse at 2.5 mg/kg, ip; format: ADME, organism-based; parameters: dose 2.5 mg/kg, route intraperitoneal; conditions: in vivo

Compound: C[C@@H](NC(=O)c1cc([N+](=O)[O-])cc([N+](=O)[O-])c1)c1ccccc1
- Activity [1]: Non-toxic
- IC50 [2]: > 63.5 µM
- selectivity ratio [3]: > 333
- MIC [4]: 0.76 µM (≈ 0.24 µg/mL)
- MBC [5]: 0.19 µM (≈ 0.0599 µg/mL)
- MIC [6]: 0.19 µM (≈ 0.0599 µg/mL)

Compound: N#Cc1ccccc1NC(=O)c1cc([N+](=O)[O-])cc([N+](=O)[O-])c1
- MIC [6]: 6.4 µM (≈ 2 µg/mL)

Compound: CC[C@H](NC(=O)c1cc([N+](=O)[O-])cc([N+](=O)[O-])c1)c1ccccc1
- MIC [6]: 3.04 µM (≈ 1 µg/mL)

Compound: CO[C@H]1/C=C/O[C@@]2(C)Oc3c(C)c(O)c4c(O)c(c(/C=N/N5CCN(C)CC5)c(O)c4c3C2=O)NC(=O)/C(C)=C\C=C\[C@H](C)[C@H](O)[C@@H](C)[C@@H](O)[C@@H](C)[C@H](OC(C)=O)[C@@H]1C [RIFAMPIN]
- MIC [6]: 0.07 µM (≈ 0.0576 µg/mL)

Compound: CCCCCCNC(=O)c1cc([N+](=O)[O-])cc([N+](=O)[O-])c1
- MIC [6]: 1.69 µM (≈ 0.499 µg/mL)

Compound: O=C(NCCCc1ccccc1)c1cc([N+](=O)[O-])cc([N+](=O)[O-])c1
- MIC [6]: 1.52 µM (≈ 0.501 µg/mL)

Compound: C[C@H](NC(=O)c1cc([N+](=O)[O-])cc([N+](=O)[O-])c1)c1ccc(Cl)cc1
- MIC [6]: 1.43 µM (≈ 0.5 µg/mL)

Compound: COc1ccc([C@H](C)NC(=O)c2cc([N+](=O)[O-])c(C)c([N+](=O)[O-])c2)cc1
- MIC [6]: 1.39 µM (≈ 0.499 µg/mL)

Compound: C[C@H](NC(=O)c1cc([N+](=O)[O-])cc([N+](=O)[O-])c1)c1ccc(F)cc1
- MIC [6]: 3 µM (≈ 1 µg/mL)

Compound: C[C@H](NC(=O)c1cc([N+](=O)[O-])cc([N+](=O)[O-])c1)c1ccccc1
- MIC [6]: > 3.17 µM

Compound: CC(C)c1ccc(NC(=O)c2cc([N+](=O)[O-])cc([N+](=O)[O-])c2)cc1
- MIC [6]: 12.1 µM (≈ 4 µg/mL)

Compound: CCCCCCCCCCCCCCCCNC(=O)c1cc([N+](=O)[O-])cc([N+](=O)[O-])c1
- MIC [6]: 0.57 µM (≈ 0.248 µg/mL)

Compound: C[C@@H](NC(=O)c1cc([N+](=O)[O-])cc([N+](=O)[O-])c1)c1ccc(Cl)cc1
- MIC [6]: 0.17 µM (≈ 0.0595 µg/mL)

Compound: O=C(Nc1cc(Cl)cc(Cl)c1)c1cc([N+](=O)[O-])cc([N+](=O)[O-])c1
- MIC [6]: 22.5 µM (≈ 8.02 µg/mL)

Compound: COc1ccc([C@H](C)NC(=O)c2cc([N+](=O)[O-])cc([N+](=O)[O-])c2)cc1
- MIC [6]: 0.35 µM (≈ 0.121 µg/mL)

Compound: Cc1c([N+](=O)[O-])cc(C(=O)NCc2ccccc2)cc1[N+](=O)[O-]
- MIC [6]: 0.38 µM (≈ 0.12 µg/mL)

Compound: O=C(Nc1ccc(F)cc1)c1cc([N+](=O)[O-])cc([N+](=O)[O-])c1
- MIC [6]: > 1.63 µM

Compound: O=C(NCc1ccccc1)c1cc([N+](=O)[O-])cc([N+](=O)[O-])c1
- MIC [6]: 0.8 µM (≈ 0.241 µg/mL)

Compound: Cc1ccc([C@H](C)NC(=O)c2cc([N+](=O)[O-])cc([N+](=O)[O-])c2)cc1
- MIC [6]: 0.76 µM (≈ 0.25 µg/mL)

Compound: O=C(Nc1cccc(F)c1)c1cc([N+](=O)[O-])cc([N+](=O)[O-])c1
- MIC [6]: 3.28 µM (≈ 1 µg/mL)

Compound: Cc1ccc([C@@H](C)NC(=O)c2cc([N+](=O)[O-])c(C)c([N+](=O)[O-])c2)cc1
- AUC(0-t) [7]: 0.352 µM·h
- clearance [8]: 134 mL/min/kg
- half-life [9]: 55.8 min
- bioavailability [10]: 49%
- Cmax [11]: 673 nM
- AUC(0-t) [12]: 0.431 µM·h
- half-life [13]: 97.8 min
- Tmax [14]: 30 min
- Cmax [15]: 177 nM
- Activity [1]: Non-toxic
- IC50 [2]: > 58.2 µM
- selectivity ratio [3]: > 666
- MIC [4]: 1.44 µM (≈ 0.494 µg/mL)
- MBC [5]: 0.72 µM (≈ 0.247 µg/mL)
- MIC [6]: 0.09 µM (≈ 0.0309 µg/mL)

Compound: CCCCC[C@@H](C)NC(=O)c1cc([N+](=O)[O-])cc([N+](=O)[O-])c1
- MIC [6]: 1.62 µM (≈ 0.501 µg/mL)

Compound: Cc1c([N+](=O)[O-])cc(C(=O)N[C@@H](C)c2ccc(F)cc2)cc1[N+](=O)[O-]
- AUC(0-t) [7]: 0.374 µM·h
- clearance [8]: 111 mL/min/kg
- half-life [9]: 54 min
- bioavailability [10]: 35%
- Cmax [11]: 711 nM
- AUC(0-t) [12]: 0.351 µM·h
- half-life [13]: 64.8 min
- Tmax [14]: 15 min
- Cmax [15]: 216 nM
- Activity [1]: Non-toxic
- IC50 [2]: > 57.6 µM
- selectivity ratio [3]: > 1330
- MIC [4]: < 0.64 µM
- MBC [5]: < 0.04 µM
- MIC [6]: 0.04 µM (≈ 0.0139 µg/mL)

Compound: Cc1ccc(CCNC(=O)c2cc([N+](=O)[O-])cc([N+](=O)[O-])c2)cc1
- MIC [6]: 1.52 µM (≈ 0.501 µg/mL)

Compound: O=C(Nc1ccccc1F)c1cc([N+](=O)[O-])cc([N+](=O)[O-])c1
- MIC [6]: 26.1 µM (≈ 7.96 µg/mL)

Compound: O=C(Nc1ccc(OC(F)(F)F)cc1)c1cc([N+](=O)[O-])cc([N+](=O)[O-])c1
- MIC [6]: 2.7 µM (≈ 1 µg/mL)
